Laboratory results reported in patent publication US20060063759A1, “Tricyclic steroid hormone nuclear receptor modulators” (priority 2002, published 2006).

Key:
glucocorticoid receptor = molecular target: T1, glucocorticoid receptor (Homo sapiens, UniProt P04150); experiment: Glucocorticoid Receptor Binding Assay ([3H]-dexamethasone, A549 cell extract); details: [3H]-dexamethasone binding, read-out: GR Ki
T1 construct: containing 50-200 ug of A549 cell extract and 1.86 nM [^3H]-dexamethasone; host or cells: A549 human lung epithelial cells (sonicated cell extract)
T1 sequence (P04150 1-777): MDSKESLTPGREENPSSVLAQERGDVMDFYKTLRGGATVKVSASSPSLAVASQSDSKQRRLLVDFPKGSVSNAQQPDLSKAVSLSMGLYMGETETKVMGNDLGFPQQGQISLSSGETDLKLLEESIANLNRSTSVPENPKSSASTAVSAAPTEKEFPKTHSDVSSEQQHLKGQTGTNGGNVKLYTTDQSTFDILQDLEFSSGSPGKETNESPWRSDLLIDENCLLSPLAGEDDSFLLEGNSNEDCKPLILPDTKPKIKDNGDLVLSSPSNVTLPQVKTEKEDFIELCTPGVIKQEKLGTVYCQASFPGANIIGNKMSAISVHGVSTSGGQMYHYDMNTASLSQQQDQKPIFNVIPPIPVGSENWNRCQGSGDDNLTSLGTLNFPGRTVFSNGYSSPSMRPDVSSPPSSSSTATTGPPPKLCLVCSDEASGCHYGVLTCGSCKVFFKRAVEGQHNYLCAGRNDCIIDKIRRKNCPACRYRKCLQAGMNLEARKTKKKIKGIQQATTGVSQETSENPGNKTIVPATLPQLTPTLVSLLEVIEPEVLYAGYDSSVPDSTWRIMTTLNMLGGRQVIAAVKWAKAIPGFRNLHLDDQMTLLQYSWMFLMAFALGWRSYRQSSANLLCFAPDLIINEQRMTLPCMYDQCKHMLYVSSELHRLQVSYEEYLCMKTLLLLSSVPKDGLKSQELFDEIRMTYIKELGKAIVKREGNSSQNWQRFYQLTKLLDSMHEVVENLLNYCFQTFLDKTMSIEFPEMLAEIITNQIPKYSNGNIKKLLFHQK
Summary of the method: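 Displacement of [3H]-dexamethasone (1.86 nM) from glucocorticoid receptor in sonicated A549 lung epithelial cell extracts, 16 h at 4 °C, pH 7.2 molybdate-containing buffer. Bound radioactivity was scintillation-counted after charcoal/dextran stripping of free ligand.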

human MR = molecular target: T2, human MR (Homo sapiens, UniProt P08235); experiment: Mineralocorticoid Receptor Binding Assay ([3H]-aldosterone); details: [3H]-aldosterone binding, human MR expressed in Sf9 cells; read-out: MR Ki
T2 construct: The full length human MR gene is cloned from a human kidney or human brain cDNA library; His tag from the pAcHLT vector (own knowledge); made in house; host or cells: Sf9 insect cells (baculovirus, pAcHLT transfer vector)
T2 sequence (P08235 1-984): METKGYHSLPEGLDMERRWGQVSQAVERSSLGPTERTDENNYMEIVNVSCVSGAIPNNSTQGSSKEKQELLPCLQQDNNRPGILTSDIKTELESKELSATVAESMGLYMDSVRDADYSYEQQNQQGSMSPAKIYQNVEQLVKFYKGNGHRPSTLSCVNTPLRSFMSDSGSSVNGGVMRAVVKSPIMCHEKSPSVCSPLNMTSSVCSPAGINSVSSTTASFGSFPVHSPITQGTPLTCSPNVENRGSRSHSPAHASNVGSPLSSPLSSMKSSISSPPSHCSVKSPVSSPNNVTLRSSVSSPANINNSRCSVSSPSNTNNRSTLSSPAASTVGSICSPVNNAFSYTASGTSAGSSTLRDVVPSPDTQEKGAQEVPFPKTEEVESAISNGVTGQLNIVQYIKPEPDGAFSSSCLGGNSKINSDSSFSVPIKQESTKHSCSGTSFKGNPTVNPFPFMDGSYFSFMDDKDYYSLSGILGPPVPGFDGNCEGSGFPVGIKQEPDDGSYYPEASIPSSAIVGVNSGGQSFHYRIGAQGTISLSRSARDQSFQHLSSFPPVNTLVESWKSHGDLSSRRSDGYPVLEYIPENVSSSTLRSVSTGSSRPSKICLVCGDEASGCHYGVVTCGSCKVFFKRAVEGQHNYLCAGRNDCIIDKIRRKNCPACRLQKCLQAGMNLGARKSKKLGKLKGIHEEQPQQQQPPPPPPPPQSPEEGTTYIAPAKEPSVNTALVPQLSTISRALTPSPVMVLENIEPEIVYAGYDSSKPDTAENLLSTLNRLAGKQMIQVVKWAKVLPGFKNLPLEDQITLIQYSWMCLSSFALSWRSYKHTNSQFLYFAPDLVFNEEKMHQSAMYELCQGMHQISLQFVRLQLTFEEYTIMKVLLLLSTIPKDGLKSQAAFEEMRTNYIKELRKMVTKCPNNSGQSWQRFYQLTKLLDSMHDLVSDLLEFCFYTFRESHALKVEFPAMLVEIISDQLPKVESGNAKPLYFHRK
Summary of the method: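 Receptor source: freeze-thaw lysate of baculovirus-infected Sf9 cells carrying full-length human MR, 20-25 μg protein. Incubation ~16 h at 4 °C with shaking, pH 7.5 buffer containing 30 mM sodium molybdate and 10% glycerol.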

Structure (SMILES)	Ki (glucocorticoid receptor) [nM]	Ki (human MR) [nM]
CS(=O)(=O)Nc1cccc(/C=C2\c3ccccc3CSc3cc(F)ccc32)c1 [Example 746]	< 500	< 500
COc1ccc2c(c1)SCc1ccccc1C2=Cc1cccc(NS(C)(=O)=O)c1 [Example 747]	< 500	< 500
Cc1ccc2c(c1)SCc1ccccc1/C2=C/c1cccc(NS(C)(=O)=O)c1 [Example 748]	< 500	< 500
Cc1ccc2c(c1)SCc1ccccc1/C2=C\c1cccc(NS(C)(=O)=O)c1 [Example 749]	< 500	< 500
CCOC(=O)C(=C1c2ccccc2CCc2ccccc21)c1cccc(NS(C)(=O)=O)c1 [Example 753, (10,11-Dihydro-dibenzo[a,d]cyclohepten-5-ylidene)-(3-methanesulfonylamino-phenyl)-acetic acid ethy lester]	< 500	< 500
CS(=O)(=O)Nc1cccc(C(CO)=C2c3ccccc3CCc3ccccc32)c1 [Example 755, N-{3-[1-(10,11-Dihydro-dibenzo[a,d]cyclohepten-5-ylidene)-2-hydroxy-ethyl]-phenyl}-methanesulfonamide]	< 500	< 500
CCC(=C1c2ccccc2CCc2ccccc21)c1cccc(N)c1 [Example 760]	< 10000	< 500
CC(=C1c2ccccc2CCc2ccccc21)c1cccc(N)c1 [Example 761]	< 500	< 500
CS(=O)(=O)Nc1cccc(C(=C2c3ccccc3CCc3ccccc32)c2ccccc2)c1 [Example 762]	< 500	< 500
CCC(=C1c2ccccc2CCc2ccccc21)c1cccc(NS(C)(=O)=O)c1 [Example 763]	< 500	< 500
CC(=C1c2ccccc2CCc2ccccc21)c1cccc(NS(C)(=O)=O)c1 [Example 765]	< 500	< 500
Nc1cccc(C(=C2c3ccccc3CCc3ccccc32)c2ccc(-c3ccccc3)cc2)c1 [Example 766]	< 10000	< 500
CS(=O)(=O)Nc1cccc(C(=C2c3ccccc3CCc3ccccc32)c2ccc(-c3ccccc3)cc2)c1 [Example 767]	< 500	< 500
COc1ccc(C(=C2c3ccccc3CCc3ccccc32)c2cccc(NS(C)(=O)=O)c2)cc1 [Example 768]	< 10000	< 500
CC(=C1c2ccc(C)cc2CCc2cc(C)ccc21)c1cccc(NS(C)(=O)=O)c1 [Example 771]	< 500	< 500
CCC(=C1c2ccc(C)cc2CCc2cc(C)ccc21)c1cccc(NS(C)(=O)=O)c1 [Example 772]	< 500	< 500
CC(=C1c2ccccc2CCc2cc(C)ccc21)c1cccc(NS(C)(=O)=O)c1 [Example 773]	< 500	< 500
CCC(=C1c2ccccc2CCc2cc(C)ccc21)c1cccc(NS(C)(=O)=O)c1 [Example 774]	< 500	< 500
CC(=C1c2ccc(F)cc2CCc2cc(F)ccc21)c1cccc(NS(C)(=O)=O)c1 [Example 775]	< 500	< 500
CCC(=C1c2ccc(F)cc2CCc2cc(F)ccc21)c1cccc(NS(C)(=O)=O)c1 [Example 776]	< 500	< 500
CC(=C1c2ccc(Cl)cc2CCc2cc(Cl)ccc21)c1cccc(NS(C)(=O)=O)c1 [Example 777]	< 500	< 500
CCC(=C1c2ccc(Cl)cc2CCc2cc(Cl)ccc21)c1cccc(NS(C)(=O)=O)c1 [Example 778]	< 500	< 500

Structure (SMILES)	Ki (glucocorticoid receptor) [nM]	Ki (human MR) [nM]
CC/C(=C1\c2ccccc2CCc2cc(C)ccc21)c1cccc(NS(C)(=O)=O)c1 [Example 779]	< 500	< 500
CC/C(=C1/c2ccccc2CCc2cc(C)ccc21)c1cccc(NS(C)(=O)=O)c1 [Example 780]	< 500	< 500
CC(C)CC(=C1c2ccccc2CCc2ccccc21)c1cccc(NS(C)(=O)=O)c1 [Example 783]	< 500	< 500
C/C(=C1\c2ccccc2COc2cc(C)ccc21)c1cccc(NS(C)(=O)=O)c1 [Example 784]	< 500	< 500
C/C(=C1\c2ccccc2COc2cc(C)c(Br)cc21)c1cccc(NS(C)(=O)=O)c1 [Example 785]	< 500	< 500
C/C(=C1/c2ccccc2COc2cc(C)ccc21)c1cccc(NS(C)(=O)=O)c1 [Example 786]	< 500	< 500
C/C(=C1\c2ccccc2CCc2c(F)cccc21)c1cccc(NS(C)(=O)=O)c1 [Example 787]	< 500	< 500
C/C(=C1/c2ccccc2COc2c(F)cccc21)c1cccc(NS(C)(=O)=O)c1 [Example 788]	< 500	< 500
C/C(=C1\c2ccccc2COc2ccc(F)cc21)c1cccc(NS(C)(=O)=O)c1 [Example 789]	< 500	< 500
C/C(=C1\c2cc(F)ccc2COc2ccccc21)c1cccc(NS(C)(=O)=O)c1 [Example 790]	< 500	< 500
C/C(=C1\c2ccccc2CCc2cc(Cl)ccc21)c1cccc(NS(C)(=O)=O)c1 [Example 793]	< 500	< 500
C/C(=C1/c2ccccc2CCc2cc(Cl)ccc21)c1cccc(NS(C)(=O)=O)c1 [Example 794]	< 500	< 500
C/C(=C1\c2ccccc2COc2ccccc21)c1cccc(NS(C)(=O)=O)c1 [Example 795]	< 500	< 500
C/C(=C1/c2ccccc2COc2ccccc21)c1cccc(NS(C)(=O)=O)c1 [Example 796]	< 500	< 500
C/C(=C1/c2ccc(Cl)cc2COc2ccccc21)c1cccc(NS(C)(=O)=O)c1 [Example 797]	< 500	< 500
C/C(=C1\c2ccc(Cl)cc2COc2ccccc21)c1cccc(NS(C)(=O)=O)c1 [Example 798]	< 500	< 500
CC/C(=C1\c2ccccc2COc2ccccc21)c1cccc(NS(C)(=O)=O)c1 [Example 799]	< 500	< 500
CC/C(=C1/c2ccccc2COc2ccccc21)c1cccc(NS(C)(=O)=O)c1 [Example 800]	< 500	< 500
CCC/C(=C1\c2ccccc2COc2ccccc21)c1cccc(NS(C)(=O)=O)c1 [Example 801]	< 500	< 500
CCC/C(=C1/c2ccccc2COc2ccccc21)c1cccc(NS(C)(=O)=O)c1 [Example 802]	< 500	< 500
C/C(=C1/c2ccc(Cl)cc2COc2cc(F)ccc21)c1cccc(NS(C)(=O)=O)c1 [Example 803]	< 500	< 500
C/C(=C1\c2ccc(Cl)cc2COc2cc(F)ccc21)c1cccc(NS(C)(=O)=O)c1 [Example 804]	< 500	< 500
